Reference: the supplement of paper PMC10307832

Key:
Experiment in all cases: relative viability (nuclei count vs DMSO), 5 days (fraction); higher = more cells survive
Bromopyruvate = compound: C(C(=O)C(=O)O)Br [Bromopyruvate]
Outline: (§1)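 Nuclei counted with MetaXpress define viability as the ratio of treated to vehicle wells, given as a median across plates. The lung cancer cell lines were in 1536-well plates, pinned with five √10-spaced library-drug doses and imaged at 4× after 5 days and Hoechst staining. Plates passed with control CV below 25% and at least one doubling.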

Bicalutamide = compound: CC(O)(CS(=O)(=O)c1ccc(F)cc1)C(=O)Nc1ccc(C#N)c(C(F)(F)F)c1 [Bicalutamide]
Outline: as §1

[1] = compound: C(C(=O)C(=O)O)Br [Bromopyruvate] + Cc1nc(NC(=O)N2CCC[C@H]2C(N)=O)sc1-c1ccnc(C(C)(C)C(F)(F)F)c1 [Alpelisib] (partner 2 µM)
Outline: (§2)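 A single step with final 0.05% Triton X-100, 1% formaldehyde and 1 ug/ml Hoechst fixed the cells and stained nuclei 5 days after treatment. Lung cancer cell lines in 1536-well plates had been treated by pin tool the day after seeding with one drug alone or a fixed anchor-drug dose plus five library-drug doses (not always all listed) in √10 steps, and nuclei were counted on 4× images. Relative viability is the ratio of nuclei in treated wells to nuclei in vehicle wells, taken as the median of duplicate plates.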

[2] = compound: CC(O)(CS(=O)(=O)c1ccc(F)cc1)C(=O)Nc1ccc(C#N)c(C(F)(F)F)c1 [Bicalutamide] + CC(C)C[C@H](NC(=O)[C@H](Cc1ccccc1)NC(=O)c1cnccn1)B(O)O [Bortezomib] (partner 0.002 µM)
Outline: as §2

Cell Line | relative viability (Bromopyruvate; 1 µM) | relative viability (Bromopyruvate; 3.162 µM) | relative viability (Bromopyruvate; 10 µM) | relative viability (Bromopyruvate; 31.62 µM) | relative viability (Bromopyruvate; 100 µM) | relative viability (Bicalutamide; 0.08 µM) | relative viability (Bicalutamide; 0.253 µM) | relative viability (Bicalutamide; 0.8 µM) | relative viability (Bicalutamide; 2.53 µM) | relative viability ([1]; first compound 1 µM) | relative viability ([1]; first compound 3.162 µM) | relative viability ([1]; first compound 10 µM) | relative viability ([1]; first compound 31.62 µM) | relative viability ([1]; first compound 100 µM) | relative viability ([2]; first compound 0.08 µM) | relative viability ([2]; first compound 0.253 µM) | relative viability ([2]; first compound 0.8 µM) | relative viability ([2]; first compound 2.53 µM)
SW 1573 | 1.03 | 0.995 | 1.13 | 0.925 | 0.385 | 1.02 | 0.757 | 1.15 | 0.969 | 0.761 | 0.84 | 0.876 | 0.678 | 0.761 | 1.05 | 0.842 | 1.25 | 0.912
NCI-H1299 | 1.01 | 1 | 1.04 | 0.968 | 0.983 | 1.01 | 1.04 | 1.05 | 1 | 1.01 | 1.04 | 1.09 | 1.04 | 1.06 | 0.974 | 1.05 | 0.969 | 1.04
NCI-H2023 | 0.893 | 0.962 | 1.15 | 0.958 | 0.959 | 1.01 | 0.903 | 1.17 | 0.907 | 0.613 | 0.728 | 0.593 | 0.646 | 0.542 | 1.09 | 0.932 | 1.11 | 0.8
LOU-NH91 | 1.09 | 1.01 | 0.973 | 0.984 | 1.01 | 1.09 | 0.765 | 1.05 | 1.04 | 0.764 | 0.732 | 0.721 | 0.775 | 0.868 | 0.53 | 0.493 | 0.441 | 0.523
NCI-H3122 | 0.992 | 1.01 | 0.999 | 0.972 | 1.01 | 1.03 | 0.977 | 1.01 | 1.03 | 0.841 | 0.831 | 0.859 | 0.729 | 0.718 | 1.03 | 1.03 | 0.988 | 1.03
LCLC-97TM1 | 1.02 | 1.06 | 1 | 0.974 | 0.859 | 1.04 | 0.974 | 1.29 | 0.862 |  |  | 0.272 | 0.302 | 0.183 | 0.726 | 0.543 | 0.635 | 0.461
NCI-H647 | 1 | 1.08 | 1.17 | 1.03 | 0.951 | 0.987 | 0.886 | 1.37 | 0.893 | 1.12 | 1.15 | 1.46 | 1.48 | 1.2 | 0.973 | 0.96 | 1.4 | 0.903
NCI-H838 | 0.994 | 0.972 | 1.05 | 0.995 | 0.894 | 0.95 | 0.908 | 1.05 | 0.76 | 1.01 | 0.983 | 1.01 | 0.981 | 1.13 | 0.715 | 0.626 | 1.28 | 0.624
H3255 | 0.953 | 0.999 | 1.02 | 1.01 | 1.12 | 0.969 | 0.896 | 1.02 | 0.907 | 0.765 | 0.647 | 0.86 | 0.856 | 0.783 | 0.798 | 0.632 | 0.783 | 0.698
NCI-H1437 | 1.05 | 0.961 | 1.04 | 0.972 | 1 | 0.997 | 0.966 | 1.07 | 0.984 | 0.967 | 1.06 | 1.21 | 0.911 | 0.989 | 0.493 | 0.372 | 0.759 | 0.455
LU99A | 0.852 | 0.913 | 0.977 | 0.967 | 1.03 | 0.926 | 0.885 | 1.22 | 0.755 | 0.516 | 0.491 | 0.512 | 0.561 | 0.483 | 0.995 | 0.964 | 1.24 | 0.846
HCC-827 | 1.04 | 1.02 | 0.988 | 1.06 | 1.07 | 1.08 | 0.842 | 1.07 | 1.03 | 1.03 | 0.988 | 0.972 | 1.02 | 0.967 | 1.12 | 0.964 | 1.04 | 0.98
HCC-366 | 0.996 | 0.979 | 1.05 | 1.02 | 0.998 | 1.01 | 0.95 | 1.06 | 1.01 | 0.494 | 0.403 | 0.503 | 0.519 | 0.41 | 1.04 | 1.02 | 1.43 | 1.04
BEN | 1.07 | 0.949 | 0.971 | 0.951 | 0.934 | 1.01 | 0.876 | 1.34 | 1.03 | 0.985 | 1.05 | 1.15 | 0.957 | 1.07 | 0.847 | 0.667 | 1.18 | 0.917
NCI-H2347 | 1.06 | 0.956 | 1.01 | 0.837 | 1.03 | 1.1 | 0.913 | 1.19 | 1.03 | 1.07 | 1.16 | 1.38 | 0.849 | 1.13 | 1.21 | 0.989 | 1.4 | 0.903
201T | 1.03 | 0.983 | 1.04 | 0.946 | 0.997 | 1.02 | 0.932 | 1.02 | 1.01 | 1.02 | 0.989 | 0.944 | 0.998 | 1.08 | 1.1 | 1.06 | 1.08 | 1.12
NCI-H520 | 0.926 | 1.17 | 0.989 | 1.07 | 0.855 | 0.948 | 0.952 | 1.17 | 0.906 | 0.844 | 1.08 | 0.884 | 0.896 | 0.875 | 0.576 | 0.391 | 0.96 | 0.432
NCI-H727 | 0.959 | 1.19 | 1.09 | 1.08 | 1.03 | 1.02 | 0.807 | 1.13 | 1.05 | 0.683 | 0.66 | 0.629 | 0.547 | 0.597 | 0.884 | 0.709 | 0.968 | 0.626
HCC-15 | 1.03 | 1.06 | 1.08 | 0.981 | 0.957 | 1.02 | 0.973 | 1.15 | 1 | 0.929 | 0.947 | 0.962 | 0.852 | 0.8 | 1.03 | 0.953 | 1.21 | 0.983
NCI-H1563 | 0.952 | 0.97 | 0.973 | 0.926 | 0.987 | 0.965 | 0.978 | 1.01 | 0.852 | 0.984 | 1.02 | 0.825 | 0.978 | 0.809 | 0.973 | 0.775 | 0.885 | 0.767
ABC-1 | 1.14 | 0.935 | 0.807 | 0.995 | 0.945 | 0.998 | 0.857 | 0.951 | 0.943 | 0.915 | 1.04 |  | 1.04 | 0.878 | 0.311 | 0.232 | 0.328 | 0.319
LCLC-103H | 0.953 | 0.992 | 1.11 | 0.994 | 0.976 | 0.986 | 0.971 | 1.08 | 0.918 | 0.981 | 0.938 | 1.01 | 0.95 | 0.985 | 1.1 | 1.08 | 1.15 | 1
NCI-H460 | 0.99 | 0.972 | 1.13 | 1 | 1.01 | 0.974 | 0.952 | 1.07 | 0.988 | 0.432 | 0.603 | 0.594 | 0.374 | 0.436 | 1.15 | 1.09 | 1.35 | 1.12
EPLC-272H | 1.01 | 1.03 | 1.11 | 0.952 | 1.04 | 0.996 | 0.798 | 1.06 | 0.908 | 1.05 | 1.17 | 0.941 | 0.806 | 1.04 | 0.873 | 0.666 | 0.904 | 0.894
